Assay results from US20150344978A1, “NICOTINE RESISTANT MICROORGANISMS” (priority 2014, published 2015).

How the values were obtained:
X-PRESS yeast strain = system: X-PRESS yeast strain
Protocol: (§1) In the method, the X-PRESS yeast strain was subjected to a number of selection cycles to generate nicotine resistance. First, the X-PRESS yeast strain was cultured in liquid media (YP medium containing yeast extract (5 g/L); peptone (10 g/L)) to which 1% w/v (10 mg/ml) nicotine was added for 72 hr at 27° C. with shaking 200 rpm. […] After 72 hr, 100 μl of the culture was applied to a 1% w/v nicotine YP agar plate and allowed to grow on the plate at 27° C. for another 72 hr. In the next step, a single colony was inoculated into a 1.5% w/v nicotine YP medium solution and incubated for another 72 hr and the entire process was repeated. This process was repeated multiple times with the concentration of nicotine being increased in increments of 0.5% w/v at each cycle. […] In FIGS. 3A & 3B, the yeast strains were inoculated onto a nicotine-containing culture plate (nicotine 50 mg/ml, yeast extract 5 g/L, peptone 10 g/L and agar 15 g/L) and incubated at 27° C. for 3 days.

[1] = system: nicotine resistant yeast strain
Protocol: as §1
To ensure the stability of the nicotine resistance trait, an additional 20 generations of the resistant strain were cultured in the 7.5% w/v nicotine nutrient solution. […] This nicotine resistant Saccharomyces cerevisiae yeast strain was deposited on under the terms of the Budapest Treaty on the International Recognition of the Deposit of Microorganisms for the Purposes of Patent Procedure at the American Type Culture Collection (ATCC) in Manassas, Va., USA and bears the Patent Accession No. ______.

CN1CCCC1c1cccnc1 (centres unmarked) [nicotine]
effect on growth of X-PRESS yeast in liquid YP medium (X-PRESS yeast strain; 1% w/v (10 mg/ml) nicotine, 72 hr, 27° C., shaking 200 rpm): inhibited the growth rate, but did not kill the yeast
growth of X-PRESS yeast on nicotine-containing culture plate (X-PRESS yeast strain; nicotine 50 mg/ml, yeast extract 5 g/L, peptone 10 g/L, agar 15 g/L, 27° C., 3 days): No yeast growth could be observed
survival of X-PRESS yeast colonies (X-PRESS yeast strain; nicotine concentration of 7.5%): no surviving yeast colonies
growth of nicotine resistant strain in medium [1]: capable of growing
growth of nicotine resistant yeast [1]: still able to grow
growth of nicotine resistant yeast on nicotine-containing culture plate [1]: grew well
less ethanol production expected (yeast; in the presence of 0.5% nicotine): 21%
less sugar consumption by yeast (yeast; nicotine 5 mg/ml added into fermentation solution (FIG. 1)): 21%
